Results from the NIST ThermoML archive (doi:10.1021/je034107o).
Numbers after ± are expanded uncertainties.

Settings: Liquid

SMILES | vapor or sublimation pressure (498.15 K) | vapor or sublimation pressure (523.15 K) | vapor or sublimation pressure (553.15 K) | vapor or sublimation pressure (583.15 K) | vapor or sublimation pressure (613.15 K) | vapor or sublimation pressure (638.15 K) | vapor or sublimation pressure (653.15 K)
CCc1ccccc1 [ethylbenzene] | 681 ± 37 kPa | 1027 ± 54 kPa | 1601 ± 83 kPa | 2387 ± 120 kPa | 3451 ± 180 kPa |  | 
c1ccc2ncccc2c1 [quinoline] |  | 135 ± 8 kPa | 245 ± 13 kPa | 416 ± 22 kPa | 668 ± 35 kPa | 955 ± 49 kPa | 1166 ± 60 kPa
